From patent US12295936B2, “Immunomodulating urea azalides” (Zoetis Services LLC, priority 2020, dated 2025)

Tested on: BRD pathogens, M. haemolytica and P. multocida
Experiment: MIC screening panel of BRD pathogens (antibacterial / non-antibacterial)
Conditions: read-out: antibacterial / non-antibacterial (MIC for the BRD pathogens)

Row | Compound | MIC
1 | CC[C@H]1OC(=O)[C@H](C)[C@@H](O)[C@H](C)[C@@H](O[C@@H]2O[C@H](C)C[C@H](N(C)C(=O)Nc3ncccn3)[C@H]2O)[C@](C)(O)C[C@@H](C)CN[C@H](C)[C@@H](O)[C@]1(C)O [Example A-1, 1-((2S,3R,4S,6R)-2-(((2R,3S,4R,5R,8R,10R,11R,12S,13S,14R)-2-ethyl-3,4,10,13-tetrahydroxy-3,5,8,10,12,14-hexamethyl-15-oxo-1-oxa-6-azacyclopentadecan-11-yl)oxy)-3-hydroxy-6-methyltetrahydro-2H-pyran-4-yl)-1-methyl-3-(pyrimidin-2-yl)urea] | > 64 µg/mL
2 | CCCN1C[C@H](C)C[C@@](C)(O)[C@H](O[C@@H]2O[C@H](C)C[C@H](N(C)C(=O)N(C)c3ccccc3)[C@H]2O)[C@@H](C)[C@H](O[C@H]2C[C@@](C)(OC)[C@@H](O)[C@H](C)O2)[C@@H](C)C(=O)O[C@H](CC)[C@@](C)(O)[C@H](O)[C@H]1C [Example B-15, 1-((2S,3R,4S,6R)-2-(((2R,3S,4R,5R,8R,10R,11R,12S,13S,14R)-2-ethyl-3,4,10-trihydroxy-13-(((2R,4R,5S,6S)-5-hydroxy-4-methoxy-4,6-dimethyltetrahydro-2H-pyran-2-yl)oxy)-3,5,8,10,12,14-hexamethyl-15-oxo-6-propyl-1-oxa-6-azacyclopentadecan-11-yl)oxy)-3-hydroxy-6-methyltetrahydro-2H-pyran-4-yl)-1,3-dimethyl-3-phenylurea] | > 64 µg/mL
3 | CC[C@H]1OC(=O)[C@H](C)[C@@H](O)[C@H](C)[C@@H](O[C@@H]2O[C@H](C)C[C@H](N(C)C(=O)Nc3cccnc3)[C@H]2O)[C@](C)(O)C[C@@H](C)CN[C@H](C)[C@@H](O)[C@]1(C)O [Example A-4, 1-((2S,3R,4S,6R)-2-(((2R,3S,4R,5R,8R,10R,11R,12S,13S,14R)-2-ethyl-3,4,10,13-tetrahydroxy-3,5,8,10,12,14-hexamethyl-15-oxo-1-oxa-6-azacyclopentadecan-11-yl)oxy)-3-hydroxy-6-methyltetrahydro-2H-pyran-4-yl)-1-methyl-3-(pyridin-3-yl)urea] | > 64 µg/mL
4 | CC[C@H]1OC(=O)[C@H](C)[C@@H](O)[C@H](C)[C@@H](O[C@@H]2O[C@H](C)C[C@H](N(C)C(=O)Nc3ccc(C)cc3)[C@H]2O)[C@](C)(O)C[C@@H](C)CN[C@H](C)[C@@H](O)[C@]1(C)O [Example A-24, 1-((2S,3R,4S,6R)-2-(((2R,3S,4R,5R,8R,10R,11R,12S,13S,14R)-2-ethyl-3,4,10,13-tetrahydroxy-3,5,8,10,12,14-hexamethyl-15-oxo-1-oxa-6-azacyclopentadecan-11-yl)oxy)-3-hydroxy-6-methyltetrahydro-2H-pyran-4-yl)-1-methyl-3-(p-tolyl)urea] | > 64 µg/mL
5 | CCCNC[C@]1(O)[C@H](C)O[C@@H](O[C@H]2[C@H](C)[C@@H](O[C@@H]3O[C@H](C)C[C@H](N(C)C(=O)N(CC)c4ccccc4)[C@H]3O)[C@](C)(O)C[C@@H](C)CN[C@H](C)[C@@H](O)[C@](C)(O)[C@@H](CC)OC(=O)[C@@H]2C)C[C@@]1(C)OC [Example H-16, 1-ethyl-3-((2S,3R,4S,6R)-2-(((2R,3S,4R,5R,8R,10R,11R,12S,13S,14R)-2-ethyl-3,4,10-trihydroxy-13-(((2R,4R,5S,6S)-5-hydroxy-4-methoxy-4,6-dimethyl-5-((propylamino)methyl)tetrahydro-2H-pyran-2-yl)oxy)-3,5,8,10,12,14-hexamethyl-15-oxo-1-oxa-6-azacyclopentadecan-11-yl)oxy)-3-hydroxy-6-methyltetrahydro-2H-pyran-4-yl)-3-methyl-1-phenylurea] | > 64 µg/mL
6 | CC[C@H]1OC(=O)[C@H](C)[C@@H](O)[C@H](C)[C@@H](O[C@@H]2O[C@H](C)C[C@H](N(C)C(=O)Nc3ccc(C(F)(F)F)cc3)[C@H]2O)[C@](C)(O)C[C@@H](C)CN[C@H](C)[C@@H](O)[C@]1(C)O [Example A-15, 1-((2S,3R,4S,6R)-2-(((2R,3S,4R,5R,8R,10R,11R,12S,13S,14R)-2-ethyl-3,4,10,13-tetrahydroxy-3,5,8,10,12,14-hexamethyl-15-oxo-1-oxa-6-azacyclopentadecan-11-yl)oxy)-3-hydroxy-6-methyltetrahydro-2H-pyran-4-yl)-1-methyl-3-(4-(trifluoromethyl)phenyl)urea] | > 64 µg/mL
7 | CCCNC[C@]1(O)[C@H](C)O[C@@H](O[C@H]2[C@H](C)[C@@H](O[C@@H]3O[C@H](C)C[C@H](N(C)C(=O)N(C)c4ccc(O)cc4)[C@H]3O)[C@](C)(O)C[C@@H](C)CN[C@H](C)[C@@H](O)[C@](C)(O)[C@@H](CC)OC(=O)[C@@H]2C)C[C@@]1(C)OC [Example H-99, 1-((2S,3R,4S,6R)-2-(((2R,3S,4R,5R,8R,10R,11R,12S,13S,14R)-2-ethyl-3,4,10-trihydroxy-13-(((2R,4R,5S,6S)-5-hydroxy-4-methoxy-4,6-dimethyl-5-((propylamino)methyl)tetrahydro-2H-pyran-2-yl)oxy)-3,5,8,10,12,14-hexamethyl-15-oxo-1-oxa-6-azacyclopentadecan-11-yl)oxy)-3-hydroxy-6-methyltetrahydro-2H-pyran-4-yl)-3-(4-hydroxyphenyl)-1,3-dimethylurea] | > 64 µg/mL
8 | CC[C@H]1OC(=O)[C@H](C)[C@@H](O[C@H]2C[C@@](C)(OC)[C@](O)(Cn3cccn3)[C@H](C)O2)[C@H](C)[C@@H](O[C@@H]2O[C@H](C)C[C@H](N(C)C(=O)N(C)c3ccccc3)[C@H]2O)[C@](C)(O)C[C@@H](C)CN[C@H](C)[C@@H](O)[C@]1(C)O [Example J-23, 1-((2S,3R,4S,6R)-2-(((2R,3S,4R,5R,8R,10R,11R,12S,13S,14R)-13-(((2R,4R,5S,6S)-5-((1H-pyrazol-1-yl)methyl)-5-hydroxy-4-methoxy-4,6-dimethyltetrahydro-2H-pyran-2-yl)oxy)-2-ethyl-3,4,10-trihydroxy-3,5,8,10,12,14-hexamethyl-15-oxo-1-oxa-6-azacyclopentadecan-11-yl)oxy)-3-hydroxy-6-methyltetrahydro-2H-pyran-4-yl)-1,3-dimethyl-3-phenylurea] | > 64 µg/mL
9 | CCCNC[C@]1(O)[C@H](C)O[C@@H](O[C@H]2[C@H](C)[C@@H](O[C@@H]3O[C@H](C)C[C@H](N(C)C(=O)N(C)c4cccnc4)[C@H]3O)[C@](C)(O)C[C@@H](C)CN[C@H](C)[C@@H](O)[C@](C)(O)[C@@H](CC)OC(=O)[C@@H]2C)C[C@@]1(C)OC [Example H-53, 1-((2S,3R,4S,6R)-2-(((2R,3S,4R,5R,8R,10R,11R,12S,13S,14R)-2-ethyl-3,4,10-trihydroxy-13-(((2R,4R,5S,6S)-5-hydroxy-4-methoxy-4,6-dimethyl-5-((propylamino)methyl)tetrahydro-2H-pyran-2-yl)oxy)-3,5,8,10,12,14-hexamethyl-15-oxo-1-oxa-6-azacyclopentadecan-11-yl)oxy)-3-hydroxy-6-methyltetrahydro-2H-pyran-4-yl)-1,3-dimethyl-3-(pyridin-3-yl)urea] | > 64 µg/mL
10 | CCCNC[C@]1(O)[C@H](C)O[C@@H](O[C@H]2[C@H](C)[C@@H](O[C@@H]3O[C@H](C)C[C@H](N(C)C(=O)N(C)c4ncc(C5CC5)cn4)[C@H]3O)[C@](C)(O)C[C@@H](C)CN[C@H](C)[C@@H](O)[C@](C)(O)[C@@H](CC)OC(=O)[C@@H]2C)C[C@@]1(C)OC [Example H-52, 1-(5-cyclopropylpyrimidin-2-yl)-3-((2S,3R,4S,6R)-2-(((2R,3S,4R,5R,8R,10R,11R,12S,13S,14R)-2-ethyl-3,4,10-trihydroxy-13-(((2R,4R,5S,6S)-5-hydroxy-4-methoxy-4,6-dimethyl-5-((propylamino)methyl)tetrahydro-2H-pyran-2-yl)oxy)-3,5,8,10,12,14-hexamethyl-15-oxo-1-oxa-6-azacyclopentadecan-11-yl)oxy)-3-hydroxy-6-methyltetrahydro-2H-pyran-4-yl)-1,3-dimethylurea] | > 64 µg/mL
11 | CC[C@H]1OC(=O)[C@H](C)[C@@H](O)[C@H](C)[C@@H](O[C@@H]2O[C@H](C)C[C@H](N(C)C(=O)Nc3ccc(Cl)cc3)[C@H]2O)[C@](C)(O)C[C@@H](C)CN[C@H](C)[C@@H](O)[C@]1(C)O [Example A-19, 3-(4-chlorophenyl)-1-((2S,3R,4S,6R)-2-(((2R,3S,4R,5R,8R,10R,11R,12S,13S,14R)-2-ethyl-3,4,10,13-tetrahydroxy-3,5,8,10,12,14-hexamethyl-15-oxo-1-oxa-6-azacyclopentadecan-11-yl)oxy)-3-hydroxy-6-methyltetrahydro-2H-pyran-4-yl)-1-methylurea] | > 64 µg/mL
